The data set is described as follows: Human HepG2 cell viability assay in 384 well format. It is filed as toxicity, cell-based. Also on record: dose 125 nL, time 70.5 hour; cytotoxicity at 70.5 h: concentration not given beside the values. As to conditions: HepG2 cells, read-out: Inhibition.

Molecules are shown by their SMILES.

In the case of `O=C(NS(=O)(=O)c1ccccc1)c1ccccc1F`, the cytotoxicity at 70.5 h is -4.29%.

With `CC(O)CNCc1ccccc1C(F)(F)F` (stereo not given), the cytotoxicity at 70.5 h is -5.36%.

Turning to `O=C(C1CCC1)N1CCN(Cc2cccnc2)[C@H]2CS(=O)(=O)C[C@H]21`, the cytotoxicity at 70.5 h is -2.54%.

For the compound `CC(Cc1cn(CCc2nc(N)cc(O)n2)nn1)c1ccccc1` (stereo not given), the cytotoxicity at 70.5 h is -11.4%.

Take `CN(C)C1CCN(Cc2cnc(S(C)(=O)=O)n2CC2CCCCC2)C1` (stereo not given): the cytotoxicity at 70.5 h is -7.41%.

In the case of `CCN1CCCC(C)(C(=O)NCCc2n[nH]c(=O)[nH]2)C1` (stereo not given), the cytotoxicity at 70.5 h was -3.84%.

For `Cc1ccc(C)c2c(O)cc(CNCCNC(=O)C(C)C)nc12`, the cytotoxicity at 70.5 h was -6.05%.

Take `Cc1cccnc1CN1CCOC(Cc2cccc3ccccc23)C1` (stereo not given): the cytotoxicity at 70.5 h is -6.62%.

With `CCOCC1(CNCc2cc(O)c3cc(C)ccc3n2)CC1`, the cytotoxicity at 70.5 h is -1.7%.

With `Cn1c(CCC(=O)N2CCCC3(CNC(=O)O3)C2)nc2cccnc21` (stereo not given), the cytotoxicity at 70.5 h was -14.8%.

Consider `COc1ccc(Oc2ncccc2C(F)(F)F)cc1CN1CCCC1`, for which the cytotoxicity at 70.5 h stood at 14%.

As for `COCCN1CCC(CN(CC2CCCO2)C(=O)CCC(F)(F)F)CC1` (stereo not given), the cytotoxicity at 70.5 h is -2.11%.

For `CC(C)c1cc(C(=O)N2CCN(c3cccc(C(=O)O)c3)CC2)n(C)n1`, the cytotoxicity at 70.5 h was -13.2%.

Consider `CCc1cc(CN(C)C(=O)c2cc(=O)[nH]c(=O)[nH]2)on1`, for which the cytotoxicity at 70.5 h was -9.27%.

On to `O=C1NCCCC12CCN(Cc1ccc(-c3ccccc3)s1)C2` (stereo not given), for which the cytotoxicity at 70.5 h turned out to be 7.11%.

Consider `CCc1ccc(-c2cn(CCSc3ncn[nH]3)nn2)nc1`, for which the cytotoxicity at 70.5 h was -1.59%.

`CCC(=O)Nc1cccc(OCC(=O)N(C)Cc2ccon2)c1`: the cytotoxicity at 70.5 h came out at 8.51%.

Turning to `CC(C)N(CCNc1nc(C2CCCC2)nc2c1cnn2C)C(C)C`, the cytotoxicity at 70.5 h is -1.41%.

Consider `COc1cccc(CC2(CO)CCCN(c3nccs3)C2)c1` (stereo not given), for which the cytotoxicity at 70.5 h was -1.79%.

Turning to `Cc1nc2ccc(-n3ncnc3[C@@H]3CCCN3S(C)(=O)=O)cc2s1`, the cytotoxicity at 70.5 h came to 12.3%.

Turning to `Cc1cnc(C(=O)N2CCc3c(nc(-c4ccncc4)[nH]c3=O)C2)cn1`, the cytotoxicity at 70.5 h is -3.01%.

For the compound `CN(Cc1ccccc1)c1cnn(CC2CCCCO2)c(=O)c1` (stereo not given), the cytotoxicity at 70.5 h was -4.54%.

As to `CCc1cnc(C)nc1N(C)CCCc1cnn(C)c1`, the cytotoxicity at 70.5 h is -12.1%.

In the case of `Cc1nc(CN2CCC(NS(C)(=O)=O)CC2)co1`, the cytotoxicity at 70.5 h is -9.09%.

Turning to `NCC1Cc2cc(F)cc(-c3cnccn3)c2O1` (stereo not given), the cytotoxicity at 70.5 h was -3.38%.

Turning to `Cc1c(C(=O)N2CCC3(CCCN(CC4CC4)C3=O)C2)ccn1C` (stereo not given), the cytotoxicity at 70.5 h is 15.8%.

On to `Nc1nc(CNc2ncnc3c2CCN(Cc2ccoc2)CC3)cs1`, for which the cytotoxicity at 70.5 h was determined as 29%.

Consider `CC(C)Cc1nnc(SCC(=O)O)n1-c1ccc(F)cc1F`, for which the cytotoxicity at 70.5 h worked out at 5.45%.

Take `CN(C)C(C(=O)NCC1(C)COC1)c1cccc(F)c1` (stereo not given): the cytotoxicity at 70.5 h was -3.06%.

`CCCc1cncnc1N1CCC2(CCC(=O)N(CCOC)C2)CC1`: the cytotoxicity at 70.5 h amounted to 13.2%.

With `Cc1ccccc1C(CNc1ncnc2c1CCNCC2)N(C)C` (stereo not given), the cytotoxicity at 70.5 h was found to be 5.24%.

In the case of `O=C(NC1CCCN(CCCc2ccccc2)C1)c1ccncc1` (stereo not given), the cytotoxicity at 70.5 h is -2.32%.

On to `CSc1ccccc1CN1C[C@@H]2CC[C@H](C1)N(CC1CC1)C2=O`, for which the cytotoxicity at 70.5 h was found to be 26.6%.

With `CC(=O)N[C@@H]1Cc2ccccc2[C@H]1Nc1nnc(C2CC2)o1`, the cytotoxicity at 70.5 h was -7.5%.

As for `Cc1ccc(OCCN(C)C(=O)CCCN2CCCC2=O)c(C)c1`, the cytotoxicity at 70.5 h is -5.15%.

For `CN(C)S(=O)(=O)NCc1cccnc1Oc1ccc(F)cc1F`, the cytotoxicity at 70.5 h was -3.42%.

Regarding `CN(C)C(=O)CN1CCc2onc(-c3ccccc3F)c2C1`, the cytotoxicity at 70.5 h stood at 48.8%.

In the case of `COCc1cc(CNC(=O)c2c(C)cc(C)[nH]c2=O)n[nH]1`, the cytotoxicity at 70.5 h was -1.97%.

Consider `CC(CCc1ccccc1)NC(=O)CN1CCOCC1` (stereo not given), for which the cytotoxicity at 70.5 h was -3.3%.

Consider `OC(CNCc1ccccc1C(F)(F)F)c1ccccc1` (stereo not given), for which the cytotoxicity at 70.5 h is -5.57%.

(Values after ChEMBL document CHEMBL3507680, “University of Dundee, Gates Library screen for HepG2 cell viability”.)
